The source of these data is US20100028259A1, “USE OF ORGANIC CATION TRANSPORTERS FOR CANCER DIAGNOSIS AND THERAPY” (The Regents of the University of California, priority 2006, published 2010).

Read-outs that look alike come from different tables or passages of the source.

One series relates to MDCK-MOCK cells. Nature of the series: MTT drug sensitivity assay in MDCK-MOCK cells. Format: cell-based, canine. The method, then: (§1) Cytotoxicity of the platinum-based compounds was measured by MTT (thiazolyl blue tetrazolium bromide) assay. Cells were seeded in 100 μl of the culture medium without any antibiotics in 96-well plates at a predetermined cell density. For HEK 293 cells, poly-D-lysine coated plates were used. After overnight incubation, the platinum-based compounds were then added to the culture medium to give the indicated final concentrations. For the OCT inhibitor studies, the inhibitors (i.e., disopyramide or cimetidine) were added to the medium at a specified concentration immediately before the addition of the platinum-based compounds. After incubation for a specified time period, the drug-containing medium was replaced with fresh, drug-free medium and the incubation was continued for a total of 72 hours (start from the addition of platinum-based compounds). Then, the MTT assay was performed similarly as described in Alley et al., Cancer Res., 48:589-601 (1988). […] The maximal cell growth was the cell growth in the medium without any platinum-based compounds; C is the concentration of the platinum-based compound, and γ is the slope factor.
(§2) Briefly, the cells were seeded in 96-well plates at a density of 5,000 cells/well for the transfected MDCK cells or 12,000 cells/well for the transfected HEK 293 cells. The platinum-based drugs were added on the following day. After the specified time periods of drug exposure, the drug-containing medium was replaced with fresh, drug-free medium, and the incubation was continued for a total of 72 hours (start from the time when the drug was added). After incubation, the cell growth was determined by an MTT assay. Data are expressed as mean±SD from 3 to 6 independent experiments with each performed in quadruplicate. The resistance factor (RF) was defined as the ratio of the mean IC50 value in the MOCK cells to that in the OCT-transfected cells.
Briefly, MDCK cells were seeded at a density of 5,000 cells/well in 96-well plates and exposed to the test compounds for 7 hours on the following day. After incubation for a total of 72 hours, the cell growth was determined by an MTT assay. The data for carboplatin was taken from Table 1 and was not determined simultaneously with the other compounds. The resistance factor (RF) was defined as the ratio of the mean IC50 value in MDCK-MOCK cells to that in MDCK-hOCT1 cells. Data are expressed as mean±SD from six measurements, and each measurement was performed in quadruplicate.

In the next series the test system is HEK-hOCT2 cells. Nature of the series: Cellular accumulation of platinum in HEK-hOCT2 cells (ICP-MS). Particulars: 2-hr exposure. Format: in vitro ADME, human. The procedure:
For the inhibitor studies, the incubation medium also contained disopyramide (150 μM). […] For the inhibitor studies, the incubation medium also contained cimetidine (1.5 mM). […] After drug exposure, the cells were washed with ice-cold PBS three times and harvested by scraping and centrifugation. The cell-associated platinum was determined by ICP-MS and normalized for protein content. Data are expressed as mean±SD from a single experiment performed in triplicate. Experiments were replicated for OCT1 and OCT2, and similar results were obtained.
The cellular accumulation of platinum was determined as described in Holzer et al., Mol. Pharmacol., 66:817-823 (2004) with some modifications. Briefly, the cells were grown in 100 mm×20 mm dishes in the culture medium without any antibiotics to over 90% confluence. For HEK 293 cells, poly-D-lysine coated dishes were used. For platinum accumulation, the cells were incubated in the culture medium containing the indicated concentrations of the platinum compounds at 37° C. in 5% CO2 for 2 hr unless specified. After incubation, the dishes were immediately placed on ice and the cells were washed with 6 ml of ice-cold PBS for three times and collected with a rubber policeman. The cell pellets were obtained by centrifugation at 400×g and at 4° C. for 15 min. For the OCT inhibitor studies, the incubation medium also contained the indicated inhibitor (i.e., disopyramide or cimetidine) in addition to the platinum-based compounds. The resulting cell pellets were then dissolved into 200 μl of 70% nitric acid at 65° C. for at least 2.5 hours, and then distilled water containing 10 ppb of iridium (Sigma) and 0.1% Triton X-100 was added to the samples to dilute nitric acid to 7%. The platinum content was measured by inductively plasma coupled mass spectrometry (ICP-MS) in the Analytical Facility at the University of California at Santa Cruz (Santa Cruz, Calif.). Cell lysates from a set of identical cultures were used for BCA protein assay.

In the next series the test system is HEK-MOCK cells. Nature of the series: MTT drug sensitivity assay in HEK-MOCK cells (control of HEK-hOCT2). Format: cell-based, human. The method, then:
as §1, §2
Background: Formazan colour is commonly taken as a measure of viable cells.

As usually defined, the IC50 is the concentration that gives 50% inhibition. As to `O=C1[O][Pt]2([NH][C@@H]3CCCC[C@H]3[NH]2)[O]C1=O` [oxaliplatin], the IC50 worked out at 10.9 ± 3.66 µM in the series on MDCK-MOCK cells (SAR study Table 4, 7 hours of drug exposure, read-out: IC50 MDCK-MOCK); 32.2 ± 13 µM with MDCK-MOCK cells (co-incubation with disopyramide 150 μM, read-out: IC50 in MDCK-MOCK, disopyramide-treated); 30.4 ± 9.28 µM with MDCK-MOCK cells (disopyramide study (FIG. 2D), without disopyramide, read-out: IC50 in MDCK-MOCK, control); 33 ± 9.12 µM in the series with MDCK-MOCK cells (drug exposure 7 hour, MTT at 72 hours, Table 1, read-out: IC50 MDCK-MOCK); 14.3 ± 5.55 µM in the series on MDCK-MOCK cells (drug exposure 24 hour, MTT at 72 hours, Table 1, read-out: IC50 MDCK-MOCK); 9.64 ± 1.85 µM in the series on MDCK-MOCK cells (drug exposure 72 hour, Table 1, read-out: IC50 MDCK-MOCK). The IC50 is 9.5 ± 2.95 µM in the series with HEK-MOCK cells (co-incubation with cimetidine 1.5 mM, read-out: IC50 in HEK-MOCK, cimetidine-treated); 2.99 ± 1.51 µM in the series on HEK-MOCK cells (drug exposure 7 hour, Table 2, read-out: IC50 HEK-MOCK); 1.5 ± 0.69 µM in the series on HEK-MOCK cells (drug exposure 24 hour, Table 2, read-out: IC50 HEK-MOCK); 0.93 ± 0.056 µM with HEK-MOCK cells (drug exposure 72 hour, Table 2, read-out: IC50 HEK-MOCK). The “cellular platinum accumulation rate in HEK-hOCT2, cimetidine” value in the series with HEK-hOCT2 cells (0.3 μM, cimetidine 1.5 mM) was found to be 1.80±0.13 pmol/mg protein-hr. The “cellular platinum accumulation rate in HEK-hOCT2” value with HEK-hOCT2 cells (drug 0.3 μM) is reported as 20.2±1.54 pmol/mg protein-hr.
